Assay [1] deals with D(1A) dopamine receptor (Sus scrofa, UniProt P50130). Briefly: Displacement of [3H]SCH23390 from dopamine D1 receptor in pig striatal membranes. Format: cell membranes, Striatum, Membrane.
Assay [2] concerns the target T1, D(2) dopamine receptor (Homo sapiens, UniProt P14416). The experiment in a line: Displacement of [3H]spiperone from human cloned dopamine D2long receptor expressed in CHO cells. Format: cell-based.
Assay [3] has as its target T1, D(2) dopamine receptor. Briefly: Displacement of [3H]spiperone from human cloned dopamine D2short receptor expressed in CHO cells. The format is cell-based. For orientation: Loss of bound radioactivity is the signal in a displacement assay; it reports binding, not function.
Assay [4] deals with D(3) dopamine receptor (Homo sapiens, UniProt P35462). Briefly: Displacement of [3H]spiperone from human cloned dopamine D3 receptor expressed in CHO cells. Format: cell-based.
Assay [5] addresses T2, D(4) dopamine receptor (Homo sapiens, UniProt P21917).
T2 sequence (P21917 whole entry): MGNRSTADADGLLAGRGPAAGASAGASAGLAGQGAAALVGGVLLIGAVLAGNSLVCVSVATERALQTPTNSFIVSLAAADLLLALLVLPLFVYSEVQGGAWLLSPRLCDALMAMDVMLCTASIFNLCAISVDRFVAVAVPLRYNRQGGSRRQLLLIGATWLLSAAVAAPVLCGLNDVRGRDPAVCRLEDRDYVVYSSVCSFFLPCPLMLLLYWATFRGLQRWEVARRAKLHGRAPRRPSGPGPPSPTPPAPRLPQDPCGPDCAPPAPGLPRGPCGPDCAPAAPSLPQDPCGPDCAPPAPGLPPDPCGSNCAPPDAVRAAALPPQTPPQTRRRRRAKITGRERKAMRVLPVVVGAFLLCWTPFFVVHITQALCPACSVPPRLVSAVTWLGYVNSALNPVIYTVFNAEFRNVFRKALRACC
The experiment in a line: Displacement of [3H]spiperone from human cloned dopamine D4.4 receptor expressed in CHO cells. Format: cell-based.

A short description of assay [6]: Displacement of [3H]WAY100635 from 5HT1A receptor in pig striatal membranes. The format is cell membranes, Sus scrofa, Striatum, Membrane.
Assay [7] has as its target 5-hydroxytryptamine receptor 2A (Sus scrofa, UniProt P50129). Briefly: Displacement of [3H]ketanserin from 5HT2 receptor in pig striatal membranes. Format: cell membranes, Striatum, Membrane.
Assay [8] can be described thus: Displacement of [3H]prazosin from adrenergic alpha1 receptor in pig striatal membranes. Format: cell membranes, Sus scrofa, Striatum, Membrane.

T1 sequence (P14416 whole entry): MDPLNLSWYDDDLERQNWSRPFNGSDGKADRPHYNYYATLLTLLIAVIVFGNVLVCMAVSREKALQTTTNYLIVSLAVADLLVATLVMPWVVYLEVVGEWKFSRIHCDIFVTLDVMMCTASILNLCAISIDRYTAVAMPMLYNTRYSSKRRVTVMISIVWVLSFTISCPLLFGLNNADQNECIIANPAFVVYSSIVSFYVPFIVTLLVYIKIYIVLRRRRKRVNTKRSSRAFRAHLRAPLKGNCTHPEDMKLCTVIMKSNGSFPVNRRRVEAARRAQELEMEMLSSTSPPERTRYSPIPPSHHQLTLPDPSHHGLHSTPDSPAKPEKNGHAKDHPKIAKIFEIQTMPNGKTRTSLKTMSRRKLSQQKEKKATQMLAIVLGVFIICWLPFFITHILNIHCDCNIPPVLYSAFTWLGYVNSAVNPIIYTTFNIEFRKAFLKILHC
D(3) dopamine receptor, sequence (P35462 whole entry): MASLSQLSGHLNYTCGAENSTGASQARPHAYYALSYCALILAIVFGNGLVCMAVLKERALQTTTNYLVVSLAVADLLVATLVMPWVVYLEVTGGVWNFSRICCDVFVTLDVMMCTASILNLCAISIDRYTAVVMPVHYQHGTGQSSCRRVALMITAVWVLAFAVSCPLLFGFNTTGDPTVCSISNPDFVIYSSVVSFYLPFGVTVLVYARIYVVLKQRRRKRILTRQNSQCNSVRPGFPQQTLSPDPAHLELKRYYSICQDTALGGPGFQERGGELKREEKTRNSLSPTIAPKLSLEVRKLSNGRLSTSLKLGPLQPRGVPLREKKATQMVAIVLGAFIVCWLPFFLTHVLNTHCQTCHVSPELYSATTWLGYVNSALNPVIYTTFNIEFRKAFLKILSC
5-hydroxytryptamine receptor 2A, sequence (P50129 whole entry): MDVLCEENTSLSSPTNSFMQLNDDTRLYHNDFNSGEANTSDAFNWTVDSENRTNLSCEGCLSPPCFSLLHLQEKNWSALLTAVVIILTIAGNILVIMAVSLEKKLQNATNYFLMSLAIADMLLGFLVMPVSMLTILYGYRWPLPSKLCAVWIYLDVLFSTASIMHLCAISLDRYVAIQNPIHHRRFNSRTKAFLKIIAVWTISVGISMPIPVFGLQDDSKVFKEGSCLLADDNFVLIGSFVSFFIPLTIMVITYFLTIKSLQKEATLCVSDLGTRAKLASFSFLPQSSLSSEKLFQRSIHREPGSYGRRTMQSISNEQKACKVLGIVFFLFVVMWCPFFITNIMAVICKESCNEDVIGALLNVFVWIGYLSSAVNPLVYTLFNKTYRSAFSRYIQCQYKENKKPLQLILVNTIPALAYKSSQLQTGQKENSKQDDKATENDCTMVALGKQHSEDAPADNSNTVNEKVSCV
D(1A) dopamine receptor, sequence (P50130 whole entry): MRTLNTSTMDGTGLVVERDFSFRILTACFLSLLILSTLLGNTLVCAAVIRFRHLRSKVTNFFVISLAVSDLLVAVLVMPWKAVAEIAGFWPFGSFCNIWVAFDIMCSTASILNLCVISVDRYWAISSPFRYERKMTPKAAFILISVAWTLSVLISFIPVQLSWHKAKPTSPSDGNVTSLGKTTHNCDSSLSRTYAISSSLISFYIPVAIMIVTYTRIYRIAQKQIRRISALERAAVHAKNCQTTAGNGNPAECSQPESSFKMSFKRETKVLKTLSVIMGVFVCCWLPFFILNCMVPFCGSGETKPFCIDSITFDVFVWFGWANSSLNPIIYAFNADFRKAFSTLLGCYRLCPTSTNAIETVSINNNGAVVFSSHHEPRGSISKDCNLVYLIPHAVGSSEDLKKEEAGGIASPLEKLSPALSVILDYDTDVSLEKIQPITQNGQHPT

In the case of `COc1ccccc1N1CCN(CCCCNC(=O)c2ccc(-c3cn(Cc4ccc(-c5ccc(Cn6cc(-c7ccc(C(=O)NCCCCN8CCN(c9ccccc9OC)CC8)cc7)nn6)cc5)cc4)nn3)cc2)CC1`, the Ki (as a rule, a dissociation constant, usually derived from enzyme kinetics or from competition with a known ligand) in assay [1] came out at 9.5 µM; in assay [2], 2 µM; in assay [3] it was 0.77 µM; in assay [4] it was 0.07 µM; in assay [5], 0.85 µM; in assay [6], 1.2 µM. The Ki in assay [7] came to 1.7 µM; in assay [8] it was 0.23 µM.

On to `COc1ccccc1N1CCN(CCCCNC(=O)c2cccc(-c3cn(Cc4ccc(-c5ccc(Cn6cc(-c7cccc(C(=O)NCCCCN8CCN(c9ccccc9OC)CC8)c7)nn6)cc5)cc4)nn3)c2)CC1`, for which the Ki is 3.4 µM in assay [1]; 15 µM in assay [2]; 10 µM in assay [3]; 0.23 µM in assay [4]; 3.4 µM in assay [5]; 2.5 µM in assay [6]. For the same compound, the Ki worked out at 3.4 µM in assay [7] and 0.35 µM in assay [8].

For the origin of these results see ChEMBL document CHEMBL1154597, “1,1'-Disubstituted ferrocenes as molecular hinges in mono- and bivalent dopamine receptor ligands” (J Med Chem, 2009).
